Test results taken from patent publication US8962573B2 (INSERM (Institut National de la Sante et de la Recherche …, priority 2009, dated 2015).
Where “and” joins values, the source holds several entries; their conditions need not be identical. Equal values may be shown once. Entries after “also recorded” stand apart in the source; their conditions may differ. Read-outs that look alike come from different tables or passages of the source.

Tests used:
CI-M6PR [1] = assay: Binding assay to biotinylated CI-M6PR (displacement from adsorbed pentamannose 6-phosphate); details: for stability of affinity in buffer solution / binding affinity to CI-M6PR (in words): 20° C.
Procedure: The binding assays of the M6 Pa were performed using biotinylated CI-M6PR. Briefly, the CI-M6PR, purified on a phosphomannan-sepharose affinity column was biotinylated by N-hydroxysuccinimide biotin. The binding of the biotinylated CI-M6PR(CI-M6PRb) to pentamannose 6-phosphate (PMP) previously adsorbed on a microtitre plate was displaced by increasing concentrations of M6 Pa. The bound CI-M6PRb was then determined using the streptavidin/peroxidase couple and OPD substrate by optical density measurements. In control experiments the method was standardized by determining of the maximal concentration of the PMP adsorbed to the microtitre plate and the CI-M6PRb concentration required to saturate the adsorbed PMP [Jeanjean A et al., Bioorg Med Chem 14: 3575-82, 2006].
The binding assays of the cathD-AMFA-1 were performed using biotinylated CI-M6PR to the same protocol used for AMFA-1 binding assay, as detailed in section 1.2.

[2] = type: in vitro ADME
Procedure: (§1) Previous results have shown that a complex cathepsin D/anti-cathepsin D antibody was specifically internalised by CI-M6PR in normal human fibroblasts [Laurent-Matha V et al., J Cell Sci. 111: 2539-49, 1998]. The complex was here detected by immunofluorescence staining.
The binding affinity of AMFA-1, AMFA-2, AMFA-3 and AMFA-5 to CI-M6PR was determined at 20° C. (A) or in the presence of 75% human serum at 37° C. […] Methods are identical to 1.8 section.

FIG.15 = assay: FIG.15
Procedure: Table printed on a drawing sheet, FIG.15
(A) and in human serum (B).
First reader's note: Stability (%) matches the CI-M6PR binding affinity remaining at the last time point of incubation in human serum in the plot printed below the table.

[3] = system: human normal fibroblast IMR-90 cell line; assay: Cytotoxicity on human normal fibroblast cell line; type: cell-based; details: FIG. 14C
MCF7 = assay: Cytotoxicity on breast cancer cell line MCF7; type: cell-based, human; details: data not shown
MDA-MB-231 = assay: Cytotoxicity on breast cancer cell line MDA-MB-231; type: cell-based, human; details: data not shown
CI-M6PR [4] = biological target: T1, CI-M6PR (Homo sapiens, UniProt P11717); type: cell-based; details: pre-incubation with 10 mM
T1 construct: endogenous in cells; host or cells: normal human fibroblasts
T1 sequence (P11717 41-2491): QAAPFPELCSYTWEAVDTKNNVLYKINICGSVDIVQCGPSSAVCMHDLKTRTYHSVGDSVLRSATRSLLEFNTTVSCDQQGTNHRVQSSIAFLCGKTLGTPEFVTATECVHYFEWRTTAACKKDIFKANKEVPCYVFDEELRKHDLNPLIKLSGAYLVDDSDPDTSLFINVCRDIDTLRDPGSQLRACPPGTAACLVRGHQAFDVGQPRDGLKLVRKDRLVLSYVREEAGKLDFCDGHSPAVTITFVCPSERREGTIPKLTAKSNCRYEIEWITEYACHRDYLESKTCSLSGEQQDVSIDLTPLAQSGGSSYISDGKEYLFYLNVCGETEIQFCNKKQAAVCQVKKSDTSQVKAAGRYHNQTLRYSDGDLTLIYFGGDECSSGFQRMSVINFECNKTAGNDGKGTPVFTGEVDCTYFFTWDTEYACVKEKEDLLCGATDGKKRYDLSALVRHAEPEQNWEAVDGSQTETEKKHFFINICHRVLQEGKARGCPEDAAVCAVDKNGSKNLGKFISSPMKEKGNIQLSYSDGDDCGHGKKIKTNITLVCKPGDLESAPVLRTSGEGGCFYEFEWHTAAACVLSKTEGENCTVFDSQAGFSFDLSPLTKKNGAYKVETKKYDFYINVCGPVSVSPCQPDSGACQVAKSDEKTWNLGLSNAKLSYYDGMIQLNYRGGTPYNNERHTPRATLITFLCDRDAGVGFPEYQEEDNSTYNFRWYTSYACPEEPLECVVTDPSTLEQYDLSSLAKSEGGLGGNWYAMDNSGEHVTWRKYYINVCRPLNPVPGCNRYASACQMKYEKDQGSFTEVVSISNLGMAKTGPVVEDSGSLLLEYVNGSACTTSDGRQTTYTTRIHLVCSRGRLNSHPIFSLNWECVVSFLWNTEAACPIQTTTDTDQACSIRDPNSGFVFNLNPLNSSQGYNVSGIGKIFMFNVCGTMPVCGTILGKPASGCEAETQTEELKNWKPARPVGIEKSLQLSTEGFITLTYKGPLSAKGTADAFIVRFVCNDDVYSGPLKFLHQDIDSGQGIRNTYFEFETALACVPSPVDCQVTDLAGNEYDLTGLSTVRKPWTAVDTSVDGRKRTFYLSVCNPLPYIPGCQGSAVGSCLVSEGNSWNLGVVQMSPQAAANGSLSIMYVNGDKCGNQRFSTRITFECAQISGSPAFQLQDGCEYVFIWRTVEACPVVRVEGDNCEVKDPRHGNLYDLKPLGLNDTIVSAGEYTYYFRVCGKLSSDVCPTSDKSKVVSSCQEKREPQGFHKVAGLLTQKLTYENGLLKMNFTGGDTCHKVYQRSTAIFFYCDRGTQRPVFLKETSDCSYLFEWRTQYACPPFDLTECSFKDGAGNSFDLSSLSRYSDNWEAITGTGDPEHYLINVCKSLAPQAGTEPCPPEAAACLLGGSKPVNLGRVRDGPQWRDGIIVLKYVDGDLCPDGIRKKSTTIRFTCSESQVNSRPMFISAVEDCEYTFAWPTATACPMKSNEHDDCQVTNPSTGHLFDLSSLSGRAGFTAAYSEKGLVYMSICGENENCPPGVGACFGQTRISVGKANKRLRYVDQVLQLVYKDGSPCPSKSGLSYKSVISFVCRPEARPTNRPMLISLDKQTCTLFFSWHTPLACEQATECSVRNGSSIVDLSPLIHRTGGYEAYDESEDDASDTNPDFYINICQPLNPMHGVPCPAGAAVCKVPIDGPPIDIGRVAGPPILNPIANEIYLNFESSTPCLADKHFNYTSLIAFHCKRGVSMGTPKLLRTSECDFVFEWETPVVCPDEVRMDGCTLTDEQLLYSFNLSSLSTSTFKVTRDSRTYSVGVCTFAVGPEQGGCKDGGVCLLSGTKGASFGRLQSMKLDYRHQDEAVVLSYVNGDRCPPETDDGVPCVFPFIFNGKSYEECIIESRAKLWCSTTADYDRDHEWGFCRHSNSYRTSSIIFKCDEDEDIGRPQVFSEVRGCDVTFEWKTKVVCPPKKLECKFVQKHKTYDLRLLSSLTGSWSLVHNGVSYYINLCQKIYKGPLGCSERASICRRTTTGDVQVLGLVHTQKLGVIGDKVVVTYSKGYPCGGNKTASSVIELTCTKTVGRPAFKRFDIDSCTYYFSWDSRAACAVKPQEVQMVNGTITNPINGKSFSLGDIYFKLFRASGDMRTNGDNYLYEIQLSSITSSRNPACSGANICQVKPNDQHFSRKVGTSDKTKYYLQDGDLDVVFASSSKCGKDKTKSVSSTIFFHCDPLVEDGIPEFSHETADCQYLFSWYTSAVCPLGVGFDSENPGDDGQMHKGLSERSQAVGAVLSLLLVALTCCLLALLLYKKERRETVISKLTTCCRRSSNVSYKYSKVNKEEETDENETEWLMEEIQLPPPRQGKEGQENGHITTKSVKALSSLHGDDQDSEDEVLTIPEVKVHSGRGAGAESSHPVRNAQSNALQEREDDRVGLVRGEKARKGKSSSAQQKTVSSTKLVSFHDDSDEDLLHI
Procedure: (§2) As observed at light microscopy, 100 ng/mL neoIDUA was already internalised by MPSI fibroblasts from Scheie patient after 3 h incubation (FIG. 17 B-E). […] Glyceraldehyde 3-phosphate dehydrogenase (GAPDH) immunodetection was used as an internal control for total protein loading.

CI-M6PR [5] = biological target: T1, CI-M6PR; assay: Endocytosis of cathepsin D/anti-cathepsin D antibody complex via CI-M6PR in normal human fibroblasts (immunofluorescence); type: cell-based; details: cells pre-incubated with 10 mM; control cells 80%
Description: as §1

[6] = system: MPSI fibroblasts from Scheie patient; assay: neoIDUA cell internalisation in MPSI fibroblasts; type: cell-based, human
Procedure: as §2

[7] = system: Hurler patient fibroblasts; assay: Secreted GAG in culture medium of Hurler patient fibroblasts (Blyscan kit); type: cell-based, human
Hurler fibroblasts = assay: Viability of Hurler fibroblasts (MTT assay); type: cell-based, human; details: 100-500 ng/mL
Procedure: Cell viability was evaluated by MTT assay [Maynadier et al. FASEB J, 22: 671-81, 2008].

Homozygous IDUA −/− mice = assay: Therapeutic efficacy in mucopolysaccharidosis I (MPSI) mouse model, urinary GAG; type: in vivo; details: 0.16 mg/kg body weight/week intravenously, 6 weeks; Mean ± SD
Procedure: Homozygous IDUA −/− mice (6-8 week-old) were treated intravenously with vehicle alone (control) or with 0.16 mg neoIDUA/kg body weight/week for 6 weeks. The secreted GAG were assayed in urine after 6 injections and normalized to urine creatinine concentrations using methods previously described [Barbosa et al., Glycobiology Adv. Access 13: 647-53, 2003].

For “5-hydrazinocarbonylpentyl 6-phosphate-α-D-mannopyranoside disodium salt [M6P-hexanehydrazide, reference compound]”, the “stability of affinity in buffer solution” value (CI-M6PR [1]) was “stable affinity”, the “decrease of affinity in human serum” value ([2]; 75% human serum at 37° C., after 7-8 h) was ~50% and the “decrease of affinity in human serum” value ([2]; 75% human serum at 37° C., after 16 h) was 84%.

For “5-hydrazinocarbonylpentyl 6-phosphate-α-D-mannopyranoside disodium salt [M6P-hexanehydrazide]”, the “Stability (%)” value (FIG.15) was 16%.

In the case of `NNC(=O)CCCCCO[C@H]1O[C@H](CCP(=O)(O)O)[C@@H](O)[C@H](O)[C@@H]1O.[Na].[Na]` [AMFA-1, 5-hydrazinocarbonylpentyl 6-deoxy-6-dihydroxyphosphinylmethyl-α-D-mannopyranoside disodium salt], the “binding affinity to CI-M6PR (in words)” value (CI-M6PR [1]) is reported as “high binding affinity”, the “binding affinity for CI-M6PR (comparison in words)” value (CI-M6PR [1]; FIG. 1, FIG. 14) is reported as “identical to those of phosphonate 1 alone” and the “stability in human serum (in words)” value ([2]; 75% (v/v) human serum, disodium salt) is reported as “identical to those of phosphonate 1 alone; also recorded: stable”. The “toxicity in human fibroblasts” value [3] was “absence of toxicity”, the “toxicity in human breast cancer cell line MCF7” value (MCF7) was “no toxicity” and the “toxicity in human breast cancer cell line MDA” value (MDA-MB-231) was “no toxicity”. For the same molecule, the “effect on uptake of neoIDUA by the cells” value (CI-M6PR [4]) was “totally prevented”.

For `NNC(=O)CCn1cc(CO[C@H]2O[C@H](CCP(=O)(O)O)[C@@H](O)[C@H](O)[C@@H]2O)nn1.[Na].[Na]` [AMFA-2, Disodium salt of (Hydrazinocarbonylethyl)-1H-1,2,3-triazol-4-yl-methyl 6-Deoxy-6-dihydroxyphosphinylmethylene-α-D-mannopyranoside], the “binding affinity to CI-M6PR (in words)” value (CI-M6PR [1]) was “high binding affinity”, the “stability in human serum (in words)” value [2] was “stable” and the “Stability (%)” value (FIG.15) was 90%.

For `NOCCO[C@H]1O[C@H](CCP(=O)(O)O)[C@@H](O)[C@H](O)[C@@H]1O.[Na].[Na]` [AMFA-3, Disodium salt of 2-(aminoxy)ethyl 6-deoxy-6-dihydroxyphosphinylmethylene-α-D-mannopyranoside], the “binding affinity to CI-M6PR (in words)” value (CI-M6PR [1]) was “high binding affinity”, the “stability in human serum (in words)” value [2] was “stable” and the “Stability (%)” value (FIG.15) was 91%.

With `COC(=O)CCCCCO[C@H]1O[C@H](CC(C(=O)[O-])C(=O)[O-])[C@@H](O)[C@H](O)[C@@H]1O.[Na+].[Na+]` [AMFA-5, [5-methoxycarbonylpentyl 6,7-dideoxy-7-(carboxy)-α-D-manno-octopyranoside]uronate disodium salt] the “binding affinity to CI-M6PR (in words)” value (CI-M6PR [1]) was “high binding affinity”, the “stability in human serum (in words)” value [2] was “stable” and the “Stability (%)” value (FIG.15) was 90%.

In the case of `O=C[C@@H](O)[C@@H](O)[C@H](O)[C@H](O)COP(=O)(O)O` [M6P, mannose 6-phosphate, reference compound], the “stability of affinity in buffer solution” value (CI-M6PR [1]) is reported as “stable affinity”, the “decrease of affinity in human serum” value ([2]; human) is reported as ~50% and the “decrease of affinity in human serum” value ([2]; human, 16 h) is reported as 100%. The “cells that internalized the cathepsin D/anti-cathepsin D antibody complex” value (CI-M6PR [5]) was 30% and the “effect on uptake of neoIDUA by the cells” value (CI-M6PR [4]) was “strongly decreased”.

With `O=C[C@@H](O)[C@@H](O)[C@H](O)[C@H](O)COP(=O)(O)O` [M6P, mannose 6-phosphate] the “Stability (%)” value (FIG.15) was 0%.

Work on “natural cathepsin D: human lysosomal enzyme, high affinity ligand for CI-M6PR with bisphosphorylated chains” yielded a Kd (CI-M6PR [1]; FIG. 16A, read-out: affinity for CI-M6PR (Kd)) of 15 nM.

B1: IDUA-AMFA-1: recombinant α-L-iduronidase from baculovirus/Sf9 cells coupled to AMFA-1 (conjugate, UniProt P35475 28-653, looked up)
Alpha-L-iduronidase: APHLVHVDAARALWPLRRFWRSTGFCPPLPHSQADQYVLSWDQQLNLAYVGAVPHRGIKQVRTHWLLELVTTRGSTGRGLSYNFTHLDGYLDLLRENQLLPGFELMGSASGHFTDFEDKQQVFEWKDLVSSLARRYIGRYGLAHVSKWNFETWNEPDHHDFDNVSMTMQGFLNYYDACSEGLRAASPALRLGGPGDSFHTPPRSPLSWGLLRHCHDGTNFFTGEAGVRLDYISLHRKGARSSISILEQEKVVAQQIRQLFPKFADTPIYNDEADPLVGWSLPQPWRADVTYAAMVVKVIAQHQNLLLANTTSAFPYALLSNDNAFLSYHPHPFAQRTLTARFQVNNTRPPHVQLLRKPVLTAMGLLALLDEEQLWAEVSQAGTVLDSNHTVGVLASAHRPQGPADAWRAAVLIYASDDTRAHPNRSVAVTLRLRGVPPGPGLVYVTRYLDNGLCSPDGEWRRLGRPVFPTAEQFRRMRAAEDPVAAAPRPLPAGGRLTLRPALRLPSLLLVHVCARPEKPPGQVTRLRALPLTQGQLVLVWSDEHVGSKCLWTYEIQFSQDGKAYTPVSRKPSTFNLFVFSPDTGAVSGSYRVRALDYWARPGPFSDPVPYLEVPVPRGPPSPGNP
modifications: coupled to AMFA-1
In the case of B1, the “internalisation by MPSI fibroblasts (light microscopy)” value ([6]; 100 ng/mL, 3 h incubation, Scheie patient) is reported as “internalised”, the “internalization in cell extracts (Western Blot)” value ([6]; after 24 h incubation) is reported as “demonstrated” and the “Secreted GAG concentrations in culture medium” value ([7]; 24 h treatment, control 0.018) is reported as 0.009 µg/mL. The “Secreted GAG concentrations in culture medium” value ([7]; 48 h treatment, control 0.022) was 0.016 µg/mL, the “Secreted GAG concentrations in culture medium” value ([7]; 72 h treatment, control 0.032) was 0.018 µg/mL and the “reduction of GAG secretion” value ([7]; from 24 to 72 h) was “up to 50%”. For the same molecule, the “toxicity on Hurler fibroblasts” value (Hurler fibroblasts) was “not toxic”, the cell viability (Hurler fibroblasts; 72 h) was “slightly potentiate cell viability” and the “Secreted GAG concentrations/creatinine concentrations in urine” value (Homozygous IDUA −/− mice) was 59.8 % control and 59.8 ± 9.0 % control.
